From patent publication US11173146B2, “Selective activators of the intermediate conductance CA2+activated K+ channel KCa3.1 and their methods of use” (The Regents of the University of California, priority 2014, dated 2021)
Entries after “also recorded” stand apart in the source; their conditions may differ.

Legend:
KCa3.1 = KCa3.1 (Homo sapiens, UniProt O15554+P0DP23); assay: Inside-out patch Ca2+ concentration-response of KCa3.1
rKCa2.2 = rKCa2.2 (UniProt P0DP23+P70604); assay: Whole-cell patch-clamp KCa2.2 activation (HEK-293)
KCa3.1−/− mice = assay: Telemetry in KCa3.1−/− mice; conditions: 100 mg/kg i.p.
mKV1.3 = molecular target: T1, mKV1.3 (Mus musculus, UniProt P16390); assay: KV1.3 current inhibition (L929 cells); format: cell-based
T1 construct: expressed in transfected cells; host or cells: L929
Text: (§1) Cells, Cell lines and Clones. HEK-293 cells stably expressing hKCa2.1, rKCa2.2 and hKCa3.1 were obtained from Khaled Houamed (University of Chicago, Ill.) in 2002 and have been maintained in the Wulff laboratory at the University of California since then. The cloning of hKCa2.3 (19 CAG repeats) and hKCa3.1 has been previously described (Wulff et al., 2000). The hKCa2.3 clone was later stably expressed in COS-7 cells at Aurora Biosciences Corp., San Diego, Calif. […]
(§2) Electrophysiology. […] For manual experiments COS-7, HEK-293 or L929 cells were trypsinized, plated onto poly-L-lysine coated coverslips and typically recorded from between 20 min and 4 h after plating. […] Free Ca^2+ concentrations were calculated with MaxChelator assuming a temperature of 25° C., a pH of 7.2 and an ionic strength of 160 mM. To reduce contaminating currents from native chloride channels in COS-7 cells, KCa2.3 currents were recorded with an internal pipette solution containing (in mM): 145 K^+ aspartate, 2 MgCl2, 10 HEPES, 10 EGTA and 7.4 CaCl2 (500 nM free Ca^2+), pH 7.2, 290-310 mOsm. […] KV2.1, Kv1.3, and KV3.1 currents were recorded in normal Ringer solution with a Ca^2+-free KF-based pipette solution as previously described (Schmitz et al., 2005). HERG (KV11.1) currents were recorded with a 2-step pulse from −80 mV first to 20 mV for 1 sec and then to −50 mV for 1 sec. […]

logP = format: physicochemical
hKV2.1 = molecular target: T2, hKV2.1 (Homo sapiens, UniProt Q14721); assay: KV2.1 current inhibition (HEK293); format: cell-based
T2 construct: host or cells: HEK293
Text: as §1, §2

hKCa2.1 = hKCa2.1 (Homo sapiens, UniProt P0DP23+Q92952); assay: Whole-cell patch-clamp KCa2.1 activation (HEK-293)

T2 sequence (Q14721 whole entry): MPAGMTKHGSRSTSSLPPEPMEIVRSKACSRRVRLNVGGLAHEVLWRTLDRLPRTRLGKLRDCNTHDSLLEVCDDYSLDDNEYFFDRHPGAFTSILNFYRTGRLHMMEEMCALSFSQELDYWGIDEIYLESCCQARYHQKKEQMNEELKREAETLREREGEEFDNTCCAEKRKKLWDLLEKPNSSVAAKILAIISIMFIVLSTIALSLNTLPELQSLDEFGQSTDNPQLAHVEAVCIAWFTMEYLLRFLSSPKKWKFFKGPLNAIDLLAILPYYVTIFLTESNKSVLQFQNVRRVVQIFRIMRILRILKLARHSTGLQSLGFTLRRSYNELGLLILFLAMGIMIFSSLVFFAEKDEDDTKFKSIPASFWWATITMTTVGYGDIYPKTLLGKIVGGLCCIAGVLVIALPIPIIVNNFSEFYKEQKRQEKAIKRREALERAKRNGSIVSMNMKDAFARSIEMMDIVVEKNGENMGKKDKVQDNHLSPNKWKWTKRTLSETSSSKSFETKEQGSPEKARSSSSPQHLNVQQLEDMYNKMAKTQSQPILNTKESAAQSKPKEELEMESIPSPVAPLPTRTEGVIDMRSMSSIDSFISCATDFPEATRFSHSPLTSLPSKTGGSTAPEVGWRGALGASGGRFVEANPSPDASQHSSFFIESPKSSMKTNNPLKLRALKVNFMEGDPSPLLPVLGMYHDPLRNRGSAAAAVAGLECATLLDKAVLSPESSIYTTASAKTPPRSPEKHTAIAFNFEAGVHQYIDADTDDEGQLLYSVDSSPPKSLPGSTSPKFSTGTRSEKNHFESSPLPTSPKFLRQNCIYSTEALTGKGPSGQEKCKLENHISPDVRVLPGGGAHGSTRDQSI
T1 sequence (P16390 whole entry): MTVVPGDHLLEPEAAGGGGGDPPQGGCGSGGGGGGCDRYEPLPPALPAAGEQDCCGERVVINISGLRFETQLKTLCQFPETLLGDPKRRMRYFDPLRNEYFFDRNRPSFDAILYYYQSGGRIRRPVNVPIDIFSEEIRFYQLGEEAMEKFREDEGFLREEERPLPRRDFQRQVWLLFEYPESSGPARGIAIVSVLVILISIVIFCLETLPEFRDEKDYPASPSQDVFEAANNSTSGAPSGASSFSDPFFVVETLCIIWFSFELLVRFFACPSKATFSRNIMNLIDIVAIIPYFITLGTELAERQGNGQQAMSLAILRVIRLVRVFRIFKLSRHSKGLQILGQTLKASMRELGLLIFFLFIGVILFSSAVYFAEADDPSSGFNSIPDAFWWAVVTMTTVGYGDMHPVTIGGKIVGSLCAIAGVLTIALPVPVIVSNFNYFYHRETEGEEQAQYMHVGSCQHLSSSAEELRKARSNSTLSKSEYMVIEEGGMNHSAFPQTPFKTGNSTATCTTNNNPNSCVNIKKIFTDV

In the case of `Cc1cc2nc(N)oc2c2ccccc12` [SKA-121, 5-Methylnaphtho[2,1-d]oxazol-2-amine], the “maximal achievable KCa3.1 current” value (KCa3.1; 1 μM SKA-121, at 1 and 10 μM Ca2+) is reported as “increased the maximal achievable current”, the “Hill coefficient of the Ca2+ concentration-response curve” value (KCa3.1; in presence of 1 μM SKA-121) is reported as ~3 and the EC50 (rKCa2.2) is reported as 6.8 ± 2.2 µM. The “Hill coefficient nH, KCa2.2 concentration-response curve” value (rKCa2.2; FIG. 4 legend) was 1.7, the “HR” value (KCa3.1−/− mice) was “did not; also recorded: no significant effects” and the “MAP” value (KCa3.1−/− mice) was “did not; also recorded: no significant effects”. It also gave an inhibition at 50 µM (mKV1.3; at 50 μM) of 27.5 ± 7.2%, a logP (logP) of 1.79 and an inhibition at 50 µM (hKV2.1; at 50 μM) of 43.2 ± 12.5%. The EC50 (hKCa2.1) was 8.7 ± 1.6 µM and the “Hill coefficient nH, KCa2.1 concentration-response curve” value (hKCa2.1; FIG. 4 legend) was 4.1.
`Cc1cc2sc(N)nc2c2ccccc12` [SKA-111, 5-methylnaphtho[1,2-d]thiazol-2-amine] showed an inhibition at 25 µM (mKV1.3; at 25 μM) of 28.5 ± 2.3% and an inhibition at 25 µM (hKV2.1; at 25 μM) of 37.3 ± 9%.
